Data on 22 compounds can be found in patent US10227323B2, “Glucosylceramide synthase inhibitors for the treatment of diseases” (BIOMARIN PHARMACEUTICAL INC., priority 2013, dated 2019).

Where only a bound is given, the exact number is not on record here.

Usually IC50 stands for the concentration needed to halve the response being measured.

One experiment concerns the target T1, GCS (Canis lupus familiaris, UniProt A0A8I3MXG6).
T1 sequence (A0A8I3MXG6 1-394): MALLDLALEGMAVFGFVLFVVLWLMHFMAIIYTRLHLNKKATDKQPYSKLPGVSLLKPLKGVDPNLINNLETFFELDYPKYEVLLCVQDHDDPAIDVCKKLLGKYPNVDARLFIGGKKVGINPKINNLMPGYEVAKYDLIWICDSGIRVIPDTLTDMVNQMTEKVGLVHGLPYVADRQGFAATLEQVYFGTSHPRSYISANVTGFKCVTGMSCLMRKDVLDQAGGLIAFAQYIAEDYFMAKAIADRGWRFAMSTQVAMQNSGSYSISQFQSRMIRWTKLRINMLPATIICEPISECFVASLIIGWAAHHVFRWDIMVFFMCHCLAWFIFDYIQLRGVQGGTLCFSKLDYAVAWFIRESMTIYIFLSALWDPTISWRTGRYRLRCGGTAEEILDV
Kind of experiment: Assay 1: GCS Enzymatic Assay (MDCK cell lysate, C6-NBD-Ceramide, LC/MS). The settings on record: Table 1; MDCK cell lysate; read-out: IC50 (nM) generated from Assay 1. It is filed as biochemical, canine. Put shortly: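 LC/MS/MS measurement of glucosylceramide and NBD-ceramide after a 1 h, 37 °C reaction with 100 μM UDP-glucose and 10 μM C6-NBD-ceramide gave IC50s or percent inhibition.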
`Cn1ncc2cc([C@@H](O)[C@@H](CN3CCCC3)NC(=O)C(F)(F)c3cc4cc(Cl)ccc4o3)ccc21` [Compound 49, 2-(5-chlorobenzofuran-2-yl)-2,2-difluoro-N-((1R,2R)-1-hydroxy-1-(1-methyl-1H-indazol-5-yl)-3-(pyrrolidin-1-yl)propan-2-yl)acetamide]: the IC50 lay within 50 to 5000 nM.

As for `O=C(N[C@H](CN1CCCC1)[C@H](O)c1ccc2c(c1)OCCO2)C(F)(F)C1Cc2ccc(-c3ccccn3)cc2C1` (stereo partly drawn) [Compound 50, N-((1R,2R)-1-(2,3-dihydrobenzo[b][1,4]dioxin-6-yl)-1-hydroxy-3-(pyrrolidin-1-yl)propan-2-yl)-2,2-difluoro-2-(5-(pyridin-2-yl)-2,3-dihydro-1H-inden-2-yl)acetamide], the half-inhibitory concentration (IC50) was < 50 nM.

`O=C(N[C@H](CN1CC2CCC1C2)[C@H](O)c1ccc2c(c1)OCCO2)C(F)(F)c1cc2cc(Cl)ccc2o1` (stereo partly drawn) [Compound 51, N-((1R,2R)-3-(2-azabicyclo[2.2.1]heptan-2-yl)-1-(2,3-dihydrobenzo[b][1,4]dioxin-6-yl)-1-hydroxypropan-2-yl)-2-(5-chlorobenzofuran-2-yl)-2,2-difluoroacetamide]: the 50% inhibitory concentration (IC50) is < 50 nM.

In the case of `O=C(N[C@H](CN1CCCC1)[C@H](O)c1ccc(OC2CC2)c(Cl)c1)C(F)(F)CCc1ccc2ccccc2c1` [Compound 52, N-((1R,2R)-1-(3-chloro-4-cyclopropoxyphenyl)-1-hydroxy-3-(pyrrolidin-1-yl)propan-2-yl)-2,2-difluoro-4-(naphthalen-2-yl)butanamide], the IC50 was < 50 nM.

For the compound `O=C(N[C@H](CN1C2CCC1CC2)[C@H](O)c1ccc2c(c1)OCCO2)C(F)(F)c1cc2cc(Cl)ccc2o1` [Compound 53, N-((1R,2R)-3-(7-azabicyclo[2.2.1]heptan-7-yl)-1-(2,3-dihydrobenzo[b][1,4]dioxin-6-yl)-1-hydroxypropan-2-yl)-2-(5-chlorobenzofuran-2-yl)-2,2-difluoroacetamide], the IC50 was < 50 nM.

Regarding `COc1ccc([C@@H](O)[C@@H](CN2CCCC2)NC(=O)C(F)(F)c2cc3cc(Cl)ccc3o2)cn1` [Compound 56, 2-(5-chlorobenzofuran-2-yl)-2,2-difluoro-N-((1R,2R)-1-hydroxy-1-(6-methoxypyridin-3-yl)-3-(pyrrolidin-1-yl)propan-2-yl)acetamide], the half-inhibitory concentration (IC50) was < 50 nM.

On to `[2H][C@@](O)(c1ccc2c(c1)OCCO2)[C@@H](CN1CCCC1)NC(=O)C(F)(F)c1cc2cc(Cl)ccc2o1` [Compound 57, 2-(5-chlorobenzofuran-2-yl)-N-((1R,2R)-1-(2,3-dihydrobenzo[b][1,4]dioxin-6-yl)-1-deutero-1-hydroxy-3-(pyrrolidin-1-yl)propan-2-yl)-2,2-difluoroacetamide], for which the IC50 is < 50 nM.

As for `O=C(N[C@H](CN1CCCC1)C(O)c1ccc2c(c1)OCCO2)C(F)(F)c1cc2cc(Cl)ccc2o1` (stereo partly drawn) [Compound 57B, N-[2-(2H,3H-benzo[e]1,4-dioxan-6-yl)(1R)-2-hydroxy-1-(pyrrolidinylmethyl)ethyl]-2-(5-chlorobenzo[d]furan-2-yl)-2,2-difluoroacetamide], the IC50 is < 50 nM.

With `COc1ccc([C@@H](O)[C@@H](CN2CCCC2)NC(=O)C(F)(F)c2cc3cc(Cl)ccc3o2)cc1C(F)F` [Compound 59, 2-(5-chlorobenzofuran-2-yl)-N-((1R,2R)-1-(3-(difluoromethyl)-4-methoxyphenyl)-1-hydroxy-3-(pyrrolidin-1-yl)propan-2-yl)-2,2-difluoroacetamide], the IC50 was 50 to 5000 nM.

As for `[2H]C([2H])(C(=O)N[C@H](CN1CCCC1)[C@H](O)c1ccc2c(c1)OCCO2)c1cc2cc(Cl)ccc2o1` [Compound 60, 2-(5-chlorobenzofuran-2-yl)-N-((1R,2R)-1-(2,3-dihydrobenzo[b][1,4]dioxin-6-yl)-1-hydroxy-3-(pyrrolidin-1-yl)propan-2-yl)-2,2-dideutero-acetamide], the IC50 is < 50 nM.

On to `O=C(N[C@H](CN1CCCC1)[C@H](O)c1ccc2c(c1)OCCO2)C(F)(F)C1Cc2ccc(Cl)cc2C1` (stereo partly drawn) [Compound 63, 2-(5-chloro-2,3-dihydro-1H-inden-2-yl)-N-((1R,2R)-1-(2,3-dihydrobenzo[b][1,4]dioxin-6-yl)-1-hydroxy-3-(pyrrolidin-1-yl)propan-2-yl)-2,2-difluoroacetamide], for which the concentration for half-maximal inhibition (IC50) is < 50 nM.

On to `O=C(N[C@H](CN1CCCC1)[C@H](O)c1cc(F)c2c(c1)OCCO2)C(F)(F)c1cc2cc(Cl)ccc2o1` [Compound 64, 2-(5-chlorobenzofuran-2-yl)-2,2-difluoro-N-((1R,2R)-1-(8-fluoro-2,3-dihydrobenzo[b][1,4]dioxin-6-yl)-1-hydroxy-3-(pyrrolidin-1-yl)propan-2-yl)acetamide], for which the half-inhibitory concentration (IC50) is < 50 nM.

`O=C(N[C@H](CN1CCCC1)[C@H](O)c1cc(Cl)c2c(c1)OCCO2)C(F)(F)c1cc2cc(Cl)ccc2o1` [Compound 65, N-((1R,2R)-1-(8-chloro-2,3-dihydrobenzo[b][1,4]dioxin-6-yl)-1-hydroxy-3-(pyrrolidin-1-yl)propan-2-yl)-2-(5-chlorobenzofuran-2-yl)-2,2-difluoroacetamide]: the IC50 is < 50 nM.

With `CC1CN(C[C@@H](NC(=O)C(F)(F)c2cc3cc(Cl)ccc3o2)[C@H](O)c2ccc3c(c2)OCCO3)C1` [Compound 66, 2-(5-chlorobenzofuran-2-yl)-N-((1R,2R)-1-(2,3-dihydrobenzo[b][1,4]dioxin-6-yl)-1-hydroxy-3-(3-methylazetidin-1-yl)propan-2-yl)-2,2-difluoroacetamide], the IC50 was < 50 nM.

For `O=C(N[C@H](CN1CCCC1)[C@H](O)c1ccc(OC2CC2)c(Cl)c1)C(F)(F)C1Cc2ccc(Cl)cc2C1` (stereo partly drawn) [Compound 67, 2-(5-chloro-2,3-dihydro-1H-inden-2-yl)-N-((1R,2R)-1-(3-chloro-4-cyclopropoxyphenyl)-1-hydroxy-3-(pyrrolidin-1-yl)propan-2-yl)-2,2-difluoroacetamide], the IC50 is < 50 nM.

The same experiment, now with this note: Table 1; values marked *; MDCK cell lysate.
With `O=C(N[C@H](CN1CC2(CCC2)C1)[C@H](O)c1ccc2c(c1)OCCO2)C(F)(F)c1cc2cc(Cl)ccc2o1` [Compound 48, 2-(5-chlorobenzofuran-2-yl)-N-((1R,2R)-1-(2,3-dihydrobenzo[b][1,4]dioxin-6-yl)-1-hydroxy-3-(2-azaspiro[3.3]heptan-2-yl)propan-2-yl)-2,2-difluoroacetamide], the “% inhibition generated from Assay 1” value was “B* (the compound had a % inhibition of greater than or equal to about 3% but less than about 50%)”.

Regarding `Cn1ncc2ccc([C@@H](O)[C@@H](CN3CCCC3)NC(=O)C(F)(F)c3cc4cc(Cl)ccc4o3)cc21` [Compound 54, 2-(5-chlorobenzofuran-2-yl)-2,2-difluoro-N-((1R,2R)-1-hydroxy-1-(1-methyl-1H-indazol-6-yl)-3-(pyrrolidin-1-yl)propan-2-yl)acetamide], the “% inhibition generated from Assay 1” value is listed as “B* (the compound had a % inhibition of greater than or equal to about 3% but less than about 50%)”.

With `Cn1ncc2ccc([C@H](O)[C@@H](CN3CCCC3)NC(=O)C(F)(F)c3cc4cc(Cl)ccc4o3)cc21` [Compound 54G, 2-(5-chlorobenzofuran-2-yl)-2,2-difluoro-N-((1S,2R)-1-hydroxy-1-(1-methyl-1H-indazol-6-yl)-3-(pyrrolidin-1-yl)propan-2-yl)acetamide], the “% inhibition generated from Assay 1” value is “B* (the compound had a % inhibition of greater than or equal to about 3% but less than about 50%)”.

`[2H][C@](O)(c1ccc2c(c1)OCCO2)[C@@H](CN1CCCC1)NC(=O)C(F)(F)c1cc2cc(Cl)ccc2o1` [Compound 57C, 2-(5-chlorobenzofuran-2-yl)-N-((1S,2R)-1-(2,3-dihydrobenzo[b][1,4]dioxin-6-yl)-1-deutero-1-hydroxy-3-(pyrrolidin-1-yl)propan-2-yl)-2,2-difluoroacetamide]: the “% inhibition generated from Assay 1” value is “B* (the compound had a % inhibition of greater than or equal to about 3% but less than about 50%)”.

Regarding `COc1ccc([C@H](O)[C@@H](CN2CCCC2)NC(=O)C(F)(F)c2cc3cc(Cl)ccc3o2)cc1C(F)F` [Compound 59I, 2-(5-chlorobenzofuran-2-yl)-N-((1S,2R)-1-(3-(difluoromethyl)-4-methoxyphenyl)-1-hydroxy-3-(pyrrolidin-1-yl)propan-2-yl)-2,2-difluoroacetamide], the “% inhibition generated from Assay 1” value is listed as “B* (the compound had a % inhibition of greater than or equal to about 3% but less than about 50%)”.

Consider `O=C(N[C@H](CN1CCCC1)[C@H](O)c1cc2c(cc1Br)OCCO2)C(F)(F)c1cc2cc(Cl)ccc2o1` [Compound 61, N-((1R,2R)-1-(7-bromo-2,3-dihydrobenzo[b][1,4]dioxin-6-yl)-1-hydroxy-3-(pyrrolidin-1-yl)propan-2-yl)-2-(5-chlorobenzofuran-2-yl)-2,2-difluoroacetamide], for which the “% inhibition generated from Assay 1” value is “B* (the compound had a % inhibition of greater than or equal to about 3% but less than about 50%)”.

As to `CC1(C)CN(C[C@@H](NC(=O)C(F)(F)c2cc3cc(Cl)ccc3o2)[C@H](O)c2ccc3c(c2)OCCO3)C1` [Compound 62, 2-(5-chlorobenzofuran-2-yl)-N-((1R,2R)-1-(2,3-dihydrobenzo[b][1,4]dioxin-6-yl)-3-(3,3-dimethylazetidin-1-yl)-1-hydroxypropan-2-yl)-2,2-difluoroacetamide], the “% inhibition generated from Assay 1” value was “B* (the compound had a % inhibition of greater than or equal to about 3% but less than about 50%)”.
